Our source for the RP-LC retention time values is the METLIN SMRT retention time set (Domingo-Almenara et al. 2019).

This data set in a line: gradient 5% acetonitrile 3 min, to 50% in 2 min, to 85% in 15 min, held 3 min, 100 µL/min. The following applies: column: Zorbax Extend-C18 2.1 x 50 mm; eluents: water / acetonitrile, 0.1% formic acid. The method in brief: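 Standards, all pure, were combined into mixtures of ~100 molecules and run at 100 μL/min on a Zorbax Extend-C18 column (2.1 × 50 mm, 1.8 μm) with water and acetonitrile, each containing 0.1% formic acid. A coupled quadrupole time-of-flight mass spectrometer operated in positive and negative ionization mode. Retention time values come from computationally picked adduct peaks, each inspected manually.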
`COc1cc(CNC(=O)C2CCN(Cc3cn(C)c4ccccc34)CC2)cc(OC)c1` yielded an RP-LC retention time of 674 s. `O=C(c1cccc(F)c1)N1CCC2(CC1)N=C(c1ccc(Cl)cc1)NO2` registered an RP-LC retention time of 800 s. For `COc1ccccc1NC(=O)Cn1c(C)nc2c(sc3nc(-c4ccccc4)ccc32)c1=O` the value was 1090 s; for `CNCCC(Oc1ccccc1OC)c1ccccc1` (stereo unspecified), 734 s; for `O=C(NCCn1nc(-n2ccnc2)ccc1=O)c1cc(-c2ccccc2)on1`, 572 s. For `COc1cc(-c2nc3nc(C)cc(C)n3c2Nc2ccccc2)ccc1O` the value was 647 s. As for `O=C(O)c1cnc(N2CCOCC2)nc1-c1ccccn1`, the RP-LC retention time was determined as 604 s.

`O=C1CC(c2noc(-c3ccc4c(c3)OCO4)n2)CN1c1ccc(F)c(Cl)c1` (stereo unspecified) registered an RP-LC retention time of 1010 s. In turn, `COc1ccc(C)cc1NC(=O)Nc1ccc2c(c1)CCN2S(=O)(=O)c1ccc(C)cc1` gave an RP-LC retention time of 1100 s. In the case of `CCCCCNC(=O)C1CC(=O)N(CCc2c[nH]c3ccc(Cl)cc23)C1` (stereo unspecified), the RP-LC retention time came to 740 s. In the case of `Cc1cc(C)cc(-n2ccn(Cc3nc(-c4ccc(F)cc4)no3)c(=O)c2=O)c1`, the RP-LC retention time worked out at 884 s. For `CCCCNC(=O)C1CCN(Cc2cn(C)c3ccc(Cl)cc23)CC1` the value was 667 s; for `O=c1c2ccccc2n(Cc2nc(-c3ccc(F)cc3)no2)c(=O)n1Cc1ccco1`, 1050 s. For `COc1cccc(-c2nc(-c3ccc4oc(-c5ccccc5)nc4c3)no2)c1OC` the value was 1410 s.

On to `COc1ccc(-c2ccnc3nc(C(C)C)nn23)c(F)c1`, for which the RP-LC retention time was determined as 840 s. For `CCCC1=C(C(=O)OCC)C(c2ccccc2OC)NC(=O)N1` (stereo unspecified) the value was 797 s; for `O=C(c1ccc2c(c1)OCO2)N1CCN(c2cc(-c3ccccc3)[nH]n2)CC1`, 733 s. For `O=C(Cn1cncn1)N1CCC(c2nnc(C(F)(F)F)o2)CC1` the value was 588 s; for `Cc1ccc(CNC(=O)C2CCN(C(=O)c3nn(C)c4c3CN(C(=O)C(C)C)CC4)CC2)cc1`, 702 s. For `CCNc1cc(N2CCC(CCC(=O)NCc3cc(F)cc(F)c3)CC2)ncn1` the value was 669 s; for `CCCC(=O)OCC1OC(n2ccc(N)nc2=O)C(OC(=O)CCC)C1OC(=O)CCC` (stereo unspecified), 738 s. `Cc1cccc(Cn2c(=O)n(CCNC(=O)c3cnccn3)c3ncccc32)c1` gave an RP-LC retention time of 722 s. For `COc1cc(Cc2nc(-c3cccc(-c4ccnn4C)c3)no2)cc(OC)c1` the value was 904 s; for `CC1CCN(C(=O)CCC(=O)N2CCN(c3nc4cccnc4s3)CC2)CC1`, 688 s. For `Nc1nnc(SCc2nnc(-c3ccccc3)o2)s1` the value was 654 s.

Regarding `CCc1noc(CN2N=C(C(=O)N3CCC(C)CC3)S(=O)(=O)c3ccc(C)cc32)n1`, the RP-LC retention time amounted to 954 s. For `CC(C)CC(=O)Nc1ccc(S(=O)(=O)N2CCC(c3ccncc3)CC2)cc1` the value was 616 s. For `CCc1nnc(C2CN(C)CC23CCN(S(=O)(=O)c2cc(F)ccc2OC)CC3)o1` (stereo unspecified) the value was 612 s; for `CCCCNC(=O)c1ccc(-c2ccc3c(c2)CCN3C(C)=O)cc1`, 832 s; for `CC(C)c1noc(-c2ccn3c(CC(=O)NC4CCCCC4)nnc3c2)n1`, 760 s. For `CN(C)c1ncncc1N1CCC(C(=O)NCC2CCCO2)CC1` (stereo unspecified) the value was 566 s.

Turning to `O=C(c1sc2ncccc2c1-n1cccc1)N1CCN(c2ncccn2)CC1`, the RP-LC retention time amounted to 866 s. As for `COc1ccc(Oc2cc3c(cc2NC(=O)Nc2cccc(OC)c2)n(C)c(=O)n3C)cc1`, the RP-LC retention time came to 920 s.

Consider `CCCCC(CC)C(=O)Nc1nc(-c2ccc(Cl)cc2)cs1` (stereo unspecified), for which the RP-LC retention time is 1240 s. For `Cc1cccc(N2C(=O)CN(CCc3ccccc3F)[C@H]3CS(=O)(=O)C[C@H]32)c1` the value was 840 s. For `CCc1nc(-c2ccc(C(=O)N3CCN(C(=O)c4ccco4)CC3)cc2)cs1` the value was 767 s; for `CCn1ccc(C(=O)N2CC(Oc3ccc(-c4nc(C)no4)cc3)C2)n1`, 819 s. For `Cn1c(=O)c(C(=O)NCc2ccc(F)cc2Cl)nc2cccnc21` the value was 824 s; for `CC(C)(C)c1cc(C(=O)Nc2cccc(C#N)c2)nc2ccnn12`, 1170 s.

`CN1C(=O)c2cccn2CC1CNC(=O)NCc1ccc(F)cc1` (stereo unspecified) displayed an RP-LC retention time of 658 s. As to `O=C(Cn1nc2n(c1=O)CCCC2)NCc1ccccc1Br`, the RP-LC retention time came out at 663 s. For `CC(=O)Oc1ccc(C(=O)N2CCCc3ccccc32)cc1` the value was 904 s; for `CCC(C(=O)NCC1CCCO1)n1c2ccccc2c2cnn(C)c(=O)c21` (stereo unspecified), 768 s.

As for `CCCNc1cc(N2CCC(CCC(=O)N(C)CCC)CC2)ncn1`, the RP-LC retention time was found to be 589 s. For `Cc1cc(C)cc(NC(=O)CN2C(=O)CCc3cc(S(=O)(=O)N4CCCCC4C)ccc32)c1` (stereo unspecified) the value was 930 s; for `COc1ccc(-n2ccnc2SCC(=O)NCc2ccc3c(c2)OCO3)c(OC)c1`, 630 s; for `CCOC(=O)c1c(C)nn(Cc2cccc(Cl)c2)c1N`, 884 s.

With `O=C(O)c1ccc(N2CCCCC2)cc1O`, the RP-LC retention time came out at 828 s. Compound `COc1ccc(CCNC(=O)C(=O)NCc2ccc(F)cc2)cc1OC` displayed an RP-LC retention time of 770 s. For `CCc1ccc2nc(Nc3ncc4c(n3)CC(c3cccc(Cl)c3)CC4=O)nc(C)c2c1` (stereo unspecified) the value was 896 s.

In turn, `COc1cccc(C(=O)N2CCc3c(c(-c4nnc(-c5ccccc5Cl)o4)nn3C)C2)c1OC` returned an RP-LC retention time of 822 s. On to `CCCn1cc(CCNS(=O)(=O)c2ccc(F)c(Cl)c2)c2cccnc21`, for which the RP-LC retention time was determined as 931 s. For `O=C(Cn1ccnc1)N1CCCC(OCc2nc(C3CC3)no2)C1` (stereo unspecified) the value was 580 s; for `Cc1ccc2[nH]cc(CCNC(=O)c3c(-c4ccccn4)noc3C)c2c1`, 964 s. For `NC(=O)C1CCc2sc(C(=O)N3CCCCCC3)cc2C1` (stereo unspecified) the value was 663 s. `O=C(CN1C(=O)COc2cc(Cl)ccc21)NC1CC1` registered an RP-LC retention time of 714 s. For `O=c1c(=O)n(-c2ccccc2)ccn1Cc1nc(-c2ccc3c(c2)OCO3)no1` the value was 773 s; for `Cc1nnc(-c2nnc(NCCC(C)C)c3ccccc23)o1`, 710 s. For `O=C(Nc1cccnc1OC1CCNCC1)C1(c2ccccc2)CC1` the value was 646 s; for `CCOCCCNC(=O)C(Cc1c[nH]c2ccccc12)NC(=O)C1CCC(C)CC1` (stereo unspecified), 839 s; for `CC(=O)N1C[C@@H]2CCCN3CCC[C@@H]([C@H]23)[C@H]1CCCC(=O)NCCC(C)C`, 583 s. For `COc1ccccc1C1(CNS(=O)(=O)c2cccc(Cl)c2C)CCOCC1` the value was 969 s. `Cc1nc(CC(=O)Nc2nc(-c3ccc(Br)cc3)cs2)cs1` returned an RP-LC retention time of 996 s. For `CCC1CCCCN1C(=O)c1cnc2nc(C)ccc2c1Nc1ccccc1` (stereo unspecified) the value was 650 s. Compound `Cc1ccc(F)cc1NC(=O)Cn1c(=O)nc(N2CCCCC2)c2ccccc21` came in with an RP-LC retention time of 841 s. For `Cc1cccc(S(=O)(=O)N2CC3CN(C(=O)CC4CCCC4)CC(C2)O3)c1` the value was 890 s; for `Cc1ccc(-n2ncc3c(=O)n(Cc4nc(-c5ccc(Cl)cc5)no4)cnc32)cc1`, 1160 s.

As for `CNC(=O)c1cc[nH]c1C1CCCN(C(=O)c2ccc(Br)o2)C1` (stereo unspecified), the RP-LC retention time worked out at 674 s.

With `O=C(Cn1nc(N2CCOCC2)c2ccccc2c1=O)Nc1ccc(F)c(F)c1`, the RP-LC retention time stood at 796 s. For `COCCNC(=O)C1CCN(c2nccc(C)n2)CC1` the value was 561 s.

With `Cc1ccccc1OCC(=O)N1CCN(c2nc(CN3CCOCC3)cs2)CC1`, the RP-LC retention time turned out to be 653 s.

In turn, `O=c1ccc(-c2cccs2)nn1CCCNS(=O)(=O)c1cccc(Cl)c1Cl` had an RP-LC retention time of 856 s. For `Cc1cc(NC(=O)C2CCCN(c3ccc(-c4ccc(Cl)cc4)nn3)C2)on1` (stereo unspecified) the value was 685 s; for `O=C(NCc1csc(C2CCN(C(=O)c3ccc(F)cc3F)CC2)n1)C1CC1`, 697 s.

`CCN1CCN(S(=O)(=O)c2cc(-c3[nH]ncc3C(=O)N3CCCC3)oc2C)CC1` gave an RP-LC retention time of 577 s. As for `O=C(C1CCN(c2nnc3ccccn23)CC1)N1CCN(c2ccccn2)CC1`, the RP-LC retention time stood at 543 s. For `COc1ccc(NC(=O)C2CCCN(c3nccnc3Sc3ccccc3)C2)cc1OC` (stereo unspecified) the value was 969 s. For `Cc1ccc(CNC(=O)C2CCN(S(=O)(=O)c3ccc4c(c3)sc(=O)n4C)CC2)cc1` the value was 862 s; for `COc1ccccc1/C=C/c1nn2c(-c3cccnc3)nnc2s1`, 872 s; for `Cc1ccccc1NS(=O)(=O)c1cc2n(c1)CCCN(C)C2=O`, 666 s.

On to `COCC(=O)N1CCC([C@H]2[C@@H](OC)C(=O)N2C(C)C)CC1`, for which the RP-LC retention time was 602 s.
